# Tests used:
# [1] = system: expression of survivin, TGF-beta-1, alpha-SMA and collagen IV in alkali burnt cornea; assay: Ex vivo RT-PCR dose ranging in alkali burnt rat eyes; details: 1 M NaOH 1 min, treatment 40 min
# Protocol: This procedure was carried out using a previously published protocol ([Lin et al., 2016]). Rat eyes were harvested from humanely killed rats and washed with HBSS. Rat eyes were further incubated with 1 M NaOH for 1 min and then treated with TSA ([…]), SurR9-C84A (0.5, 1.2, and 2.5 mg/kg), pSur/As-Sur ([…]) and empty plasmid (200, 400, and 800 μg/kg) for 40 min. Untreated eyes were maintained as controls. After treatment period, eyes were washed with PBS and total RNA was extracted using the TRIzol® reagent (cat# 15596-026, Thermo Fisher Scientific, Waltham, MA, USA), and complementary DNA (cDNA) was synthesized from RNA using the RevertAid H Minus First Strand cDNA Synthesis Kit (cat# K1631, Thermo Fisher Scientific). Expression of survivin, TGF-beta-1, alpha-SMA and collagen IV was determined by polymerase chain reaction (PCR).
# cornea = assay: Mean opacity and mean permeability measurements, rat alkali burn model; assay type: in vivo; details: 1 M NaOH 1 min, topical treatment 40 min
# Protocol: The mean in vivo scores was determined using the mean opacity measurements. The rat eyes were excised carefully and carried to the laboratory in HBSS supplemented with penicillin/streptomycin. The measurement of mean opacity was carried out using an opacitometer which measures the transmission of light through the center of each mounted cornea. The mean permeability score was determined by adding a fluorescent (rhodamine solution) on the anterior side of the holder and the corneas were incubated in a horizontal position for 90 min at 32°C. The medium in the posterior chamber was removed and added to 96 well plates and the OD at 490 nm was read. The readings obtained at OD490 were used to determine the permeability of each treatment with respect to the change in the untreated corneas.
# [2] = system: conjunctival layer and corneal matrix; assay: H&E histology of corneal segments, rat alkali burn model; assay type: in vivo; details: 1 M NaOH 1 min, topical treatment 40 min
# Protocol: After the completion of the study, all tissues that required to be examined (eyes, brain, kidneys, liver, spleen, heart and lungs) were isolated. The cornea was carefully separated from the eye without damaging it and washed using phosphate buffer saline (PBS). Tissues were fixed using 4% paraformaldehyde (PF) overnight at 4°C and then washed in PBS. The tissue segments were dehydrated in graded ethanol, embedded in paraffin and 5–7 μm thick sections were cut using a microtome. Sections were collected on poly-lysine coated slides using the Leica cryostat and were fixed immediately in ice-cold acetone. All the sections were stained for haematoxylin–eosin (H&E) for critical analysis.
# corneal lysate = assay: Multianalyte ELISA of inflammatory cytokines in corneal lysate; assay type: in vivo, rat
# Protocol: The cytokine profiling was performed using the Rat Inflammatory Cytokines & Chemokines Multi-Analyte ELISArray Kit (QIAGEN, USA). Briefly, serial dilutions of the Antigen Standard and the experimental samples were prepared. 50 μL of Assay Buffer was added to each well of the 8-well ELISA strips. Fifty microliters samples and/or standards were added to the appropriate wells of the ELISA strips and incubated for 2 h at room temperature. The ELISA strips were further washed using 350 μL 1 × Washing Buffer thrice. Hundred microliters of Detection Antibody solution was added to the ELISA strips and incubated for 1 h at room temperature. ELISA wells were washed as mentioned above. Hundred microliters of the Avidin–HRP solution was added to all wells and incubated for 30 min at room temperature. ELISA wells were washed as mentioned above. Hundred microliters of Development Solution was added to each well and incubated for 15 min at room temperature in the dark. Hundred microliters of Stop Solution was added to each well. The color changed from blue to yellow. The absorbance at 450 nm was measured within 30 min of stopping the reaction. The estimation of pg/mL of cytokines was performed using the values obtained from antigen standards and a graph was plotted for the cytokine expression with the effect of treatments.
# [3] = Ocular and systemic pharmacokinetics of TSA after topical application; details: for Concentration of TSA in Aqueous humor / Concentration of TSA in Conjunctiva / Concentration of TSA in Cornea / Concentration of TSA in Plasma / Concentration of TSA in Tear fluid: mean ±SD; for AUC0-8 / AUC0-∞ / Cmax / Tmax / t1/2: rat, topical application
# Protocol: Pharmacokinetic analysis was done using the HPLC System for the levels of TSA in eye tissue and plasma samples was measured using PK methods. PK estimated using standard measurements for maximum concentration (Cmax), time to reach Cmax (Tmax), area under the concentration–time curve (AUC), elimination rate constant (K), elimination half-life (t1/2), apparent clearance (CL/F), apparent volume of distribution (Vd/F).
# Blood analysis = assay type: in vivo; parameters: HCT / MCH / WBC / RBC / HGB / MCHC: unit not given here; details: rat blood
# Protocol: The analysis of blood samples was performed directly using the ABX Micros ES 60 (Horiba Medicals). The parameters analyzed included the number of red blood cells (RBC’s), white blood cells (WBC’s), platelets and hemoglobin content. Briefly, 20 μL of the blood sample was acquired in the instrument and the readings were recorded.
# rat corneal tissues = details: confocal microscopy
# [4] = system: rat eyes post-alkali burn
# [5] = 2 min after topical application in eye
# [6] = 10 min after topical application in eye
# [7] = 30 min after topical application in eye
smiles,measurement,setting,value
"CC(/C=C/C(=O)NO)=C\[C@@H](C)C(=O)c1ccc(N(C)C)cc1 [TSA, trichostatin A]","most effective dosage in inhibiting expression of survivin, alpha-SMA, TGF-beta-1 and collagen IV",[1],0.02 mg/kg
same,Mean in vitro score,cornea,0.20 ± 0.5^∗
same,Mean opacity measurement,cornea,0.5 ± 0.2 ^∗
same,Predicted irritation potential,cornea,No irritation
same,"corneal tissue integrity (conjunctival layer, corneal matrix), H&E",[2],recovery of the conjunctival layer
same,"GMCSF expression, ELISA",corneal lysate,downregulated effectively
same,"IFN-gamma expression, ELISA",corneal lysate,significant downregulation
same,"IL-1 beta expression, ELISA",corneal lysate,downregulation
same,"IL-2 expression, ELISA",corneal lysate,significantly increased
same,"IL-4 expression, ELISA",corneal lysate,increase
same,"IL-6 expression, ELISA",corneal lysate,downregulated effectively
same,"IL-12 expression, ELISA",corneal lysate,further downregulation
same,"IL-13 expression, ELISA",corneal lysate,downregulated effectively
same,"Rantes expression, ELISA",corneal lysate,significantly downregulated
same,"TNF-alpha expression, ELISA",corneal lysate,downregulated effectively
same,Concentration of TSA in Aqueous humor,[3]; [5],119.43 ± 37.92 ng/mL
same,Concentration of TSA in Conjunctiva,[3]; [5],267.88 ± 75.51 µg/g
same,Concentration of TSA in Cornea,[3]; [5],216.83 ± 78.05 µg/g
same,Concentration of TSA in Plasma,[3]; [5],103.61 ± 28.37 ng/mL
same,Concentration of TSA in Tear fluid,[3]; [5],333.42 ± 69.72 µg/g
same,Concentration of TSA in Aqueous humor,[3]; [6],112.94 ± 15.10 ng/mL
same,Concentration of TSA in Conjunctiva,[3]; [6],261.29 ± 66.47 µg/g
same,Concentration of TSA in Cornea,[3]; [6],291.02 ± 109.25 µg/g
same,Concentration of TSA in Plasma,[3]; [6],263.87 ± 80.96 ng/mL
same,Concentration of TSA in Tear fluid,[3]; [6],208.93 ± 30.82 µg/g
same,Concentration of TSA in Conjunctiva,[3]; [7],178.23 ± 35.22 µg/g
same,Concentration of TSA in Cornea,[3]; [7],762.86 ± 385.68 µg/g
same,Concentration of TSA in Plasma,[3]; [7],109.16 ± 33.00 ng/mL
same,Concentration of TSA in Tear fluid,[3]; [7],154.98 ± 73.25 µg/g
same,AUC0-8,[3]; Aqueous humor,7568 µg·h/g
same,AUC0-∞,[3]; Aqueous humor,7689 µg·h/g
same,Cmax,[3]; Aqueous humor,"11,046 ± 2734 μg/g"
same,Tmax,[3]; Aqueous humor,20 min
same,t1/2,[3]; Aqueous humor,90 min
same,AUC0-8,[3]; Conjunctiva,53.4 µg·h/g
same,Cmax,[3]; Conjunctiva,26.26 ± 7.19 µg/g
same,Tmax,[3]; Conjunctiva,5 min
same,t1/2,[3]; Conjunctiva,252 min
same,AUC0-8,[3]; Cornea,45.5 µg·h/g
same,AUC0-∞,[3]; Cornea,55.5 µg·h/g
same,Cmax,[3]; Cornea,44.67 ± 12.91 µg/g
same,Tmax,[3]; Cornea,5 min
same,t1/2,[3]; Cornea,210 min
same,AUC0-8,[3]; Plasma,65.5 µg·h/g
same,AUC0-∞,[3]; Plasma,68.4 µg·h/g
same,Cmax,[3]; Plasma,160.3 ± 61.0 µg/g
same,Tmax,[3]; Plasma,10 min
same,t1/2,[3]; Plasma,90 min
same,AUC0-8,[3]; Tear fluid,678.5 µg·h/g
same,AUC0-∞,[3]; Tear fluid,768.5 µg·h/g
same,Cmax,[3]; Tear fluid,"2,987 ± 1814 μg/g"
same,Tmax,[3]; Tear fluid,5 min
same,t1/2,[3]; Tear fluid,138 min
same,HCT,Blood analysis,increased the HCT count to normal range
same,HGB,Blood analysis,17.61 ± 1.41
same,MCH,Blood analysis,reduced to normal range
same,MCHC,Blood analysis,38.15 ± 1.63
same,PLT,Blood analysis,256.33 ± 117
same,RBC,Blood analysis,8.15 ± 0.61
same,WBC,Blood analysis,5.48 ± 2.06
same,MCV,Blood analysis; in fL (unit assumed),56.66 ± 1.86
same,HCT,Blood analysis; listed as NaOH–TSA,46.2 ± 4.14
same,MCH,Blood analysis; listed as NaOH–TSA,21.63 ± 1.01
same,"alpha-SMA expression, immunofluorescence",rat corneal tissues,failed to downregulate it effectively
same,"collagen type IV expression, immunofluorescence",rat corneal tissues,most effective in increasing
same,"enhancement of Fibronectin-1 expression, western blot",rat corneal lysates; post-NaOH insult,1.97 fold
same,"increase in TGF-beta-1 expression, western blot",rat corneal lysates; post-NaOH insult,1.45 fold
same,"decrease/downregulation of collagen type IV, western blot","rat corneal lysates; rat, in vivo, iv",2.8 fold
same,"Collagen type IV gene expression, qRT-PCR",[4],efficiently downregulated
same,"Fibronectin-1 gene expression, qRT-PCR",[4],significantly enhanced
same,"IL-1 beta gene expression, qRT-PCR",[4],increase
same,"IL-6 gene expression, qRT-PCR",[4],significantly lowered
same,"MMP-2 gene expression, qRT-PCR",[4],downregulating
same,"TGF-beta-1 gene expression, qRT-PCR",[4],further increase
same,"TNF-alpha gene expression, qRT-PCR",[4],significantly lowered
same,"alpha-SMA gene expression, qRT-PCR",[4],significant increase
same,"alpha-integrin 5 gene expression, qRT-PCR",[4],significant increase

# Source: article PMC5418359, “Topical Ophthalmic Formulation of Trichostatin A and SurR9-C84A for Quick Recovery Post-alkali Burn of Corneal Haze” (Frontiers in Pharmacology, 2017)
